From patent US5578634A, “1H-indole-3-acetic acid hydrazide sPLA2 inhibitors” (Eli Lilly and Company, priority 1995, dated 1996)

Experiments:
[1] = target: T1, sPLA2 contraction (Homo sapiens, UniProt P14555); assay: sPLA2-induced contraction of guinea pig lung pleural strips, tissue test (Assay Example 2); set-up: species or system Male Hartley strain guinea pigs; key to transient contraction of tissue during test: *: indicates transient contraction of tissue during test; conditions: for inhibition at 30 µM / inhibition at 10 µM: guinea pig, sPLA2 10 ug/ml; for inhibition at 30 µM: compound concentration 30 uM, read-out: % suppression of sPLA2 contraction at 30 uM; for inhibition at 10 µM: compound concentration 10 uM, read-out: % suppression of sPLA2 contraction at 10 uM
T1 sequence (P14555 21-144): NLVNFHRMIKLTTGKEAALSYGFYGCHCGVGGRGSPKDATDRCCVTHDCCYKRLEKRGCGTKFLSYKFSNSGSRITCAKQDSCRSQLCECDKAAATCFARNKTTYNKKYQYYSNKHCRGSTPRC
Description: Male Hartley strain guinea pigs (500-700 g) were killed by cervical dislocation and their heart and lungs removed intact and placed in aerated (95% O2 :5% CO2) Krebs buffer. Dorsal pleural strips (4×1×25 mm) were dissected from intact parenchymal segments (8×4×25 mm) cut parallel to the outer edge of the lower lung lobes. Two adjacent pleural strips, obtained from a single lobe and representing a single tissue sample, were tied at either end and independently attached to a metal support rod. One rod was attached to a Grass force-displacement transducer (Model FTO3C, product of Grass Medical Instruments Co., Quincy, Mass., USA). […] All tissues were placed in 10 ml jacketed tissue baths maintained at 37° C. The tissue baths were continuously aerated and contained a modified Krebs solution of the following composition (millimolar) NaCl, 118.2; KCl, 4.6; CaCl2.2H2 O, 2.5; MgSO4.7H2 O, 1.2; NaHCO3, 24.8; KH2 PO4, 1.0; and dextrose, 10.0. Pleural strips from the opposite lobes of the lung were used for paired experiments. […] The tissues were allowed to equilibrate for 45 min. as the bath fluid was changed periodically. Cumulative concentration-response curves: Initially tissues were challenged 3 times with KCl (40 mM) to test tissue viability and to obtain a consistent response. After recording the maximal response to KCl the tissues were washed and allowed to return to baseline before the next challenge. Cumulative concentration-response curves were obtained from pleural strips by increasing the agonist concentration (sPLA2) in the tissue bath by half-log10 increments while the previous concentration remained in contact with the tissues (Ref.1, supra.) Agonist concentration was increased after reaching the plateau of the contraction elicited by the preceding concentration. One concentration-response curve was obtained from each tissue. To minimize variability between tissues obtained from different animals, contractile responses were expressed as a percentage of the maximal response obtained with the final KCl challenge. When studying the effects of various drugs on the contractile effects of sPLA2, the compounds and their respective vehicles were added to the tissues 30 min. prior to starting the sPLA2 concentration-response curves. statistical analysis: Data from different experiments were pooled and presented as a percentage of the maximal KCl responses (mean±S.E.). To estimate the drug induced rightward shifts in the concentration response curves, the curves were analyzed simultaneously using statistical nonlinear modeling methods similar to those described by Waud (1976), Equation 26, p. 163, (Ref.2). The model includes four parameters: the maximum tissue response which was assumed the same for each curve, the ED50 for the control curve, the steepness of the curves, and the PA2, the concentration of antagonist that requires a two-fold increase in agonist to achieve an equivalent response. The Schild slope was determined to be 1, using statistical nonlinear modeling methods similar to those described by Waud (1976), Equation 27, p. 164 (Ref. 2). […] To estimate the drug-induced suppression of the maximal responses, sPLA2 responses (10 ug/ml) were determined in the absence and presence of drug, and percent suppression was calculated for each pair of tissues. Ref. 1--van Rossum, J. M.: Cumulative dose-response curves. II. Technique for the making of dose-response curves in isolated organs and the evaluation of drug parameters. Arch. Int. Pharmacodyn. Ther. 143: 299-330, 1963. Ref. 2--Waud, D.: Analysis of dose-response relationships. in Advances in General and Cellular Pharmacology […]

[2] = target: T2, human secreted PLA2 (Homo sapiens, UniProt P14555); assay: chromogenic assay of recombinant human secreted phospholipase A2 inhibition (Assay Example 1); assay type: biochemical; conditions: mean of 3-5 tests; 40° C., 30 minutes, pH 7.5, 405 nanometers; read-out: Inhibition of human secreted PLA2 IC50 ± mean deviation (3-5 tests)
T2 sequence (P14555 21-144): T1 sequence (P14555 21-144)
Description: The assay described herein has been adapted for high volume screening using 96 well microtiter plates. A general description of this assay method is found in the article, "Analysis of Human Synovial Fluid Phospholipase A2 on Short Chain Phosphatidylcholine-Mixed Micelles: Development of a Spectrophotometric Assay Suitable for a Microtiterplate Reader", by Laure J. Reynolds, Lori L. […] Reagents, the disclosure of which is incorporated herein by reference. REACTION BUFFER CaCl2.2H20 (1.47 g/L) KCl (7.455 g/L) Bovine Serum Albumin (fatty acid free) (1 g/L) (Sigma A-7030, product of Sigma Chemical Co. St. Louis Mo., USA) TRIS HCl (3.94 g/L) pH 7.5 (adjust with NaOH) ENZYME BUFFER […] 0.2 NaCl Adjust pH to 4.5 with acetic acid DTNB […] RACEMIC DIHEPTANOYL THIO - PC […] TRITON X-100™ prepare at 6.249 mg/ml in reaction buffer to equal […]. REACTION MIXTURE A measured volume of racemic dipheptanoyl thio PC supplied in chloroform at a concentration of 100 mg/ml is taken to dryness and redissolved in 10 millimolar TRITON X-100™ nonionic detergent aqueous solution. Reaction Buffer is added to the solution, then DTNB to give the Reaction Mixture. The reaction mixture thus obtained contains 1 mM diheptanoly thio-PC substrate, 0.29 mM Triton X-100™ detergent, and 0.12 mM DTMB in a buffered aqueous solution at pH 7.5. Assay Procedure: 1. Add 0.2 ml reaction mixture to all wells; 2. Add 10 ul test compound (or solvent blank) to appropriate wells, mix 20 seconds; 3. Add 50 nanograms of sPLA2 (10 microliters) to appropriate wells; 4. Incubate plate at 40° C. for 30 minutes; […] Read absorbance of wells at 405 nanometers with an automatic plate reader. All compounds were tested in triplicate. Typically, compounds were tested at a final concentration of 5 ug/ml. […] Lack of color development at 405 nanometers evidenced inhibition. Compounds initially found to be active were reassayed to confirm their activity and, if sufficiently active, IC50 values were determined. […] In all cases, % inhibition measured at 405 nanometers generated by enzyme reactions containing inhibitors relative to the uninhibited control reactions was determined. Each sample was titrated in triplicate and result values were averaged for plotting and calculation of IC50 values. […] IC50 values were determined at least three times for each compound tested.

Row | Molecule | inhibition at 30 µM [1] [%] | IC50 [2] [nM] | inhibition at 10 µM [1] [%] | transient contraction of tissue during test ([1]; footnote * of Table 2)
1 | CCc1c(CC(=O)NN)c2cc(OC3CCCC3)ccc2n1Cc1ccccc1 [Example 2, 5-Cyclopentoxy-2-ethyl-1-(phenylmethyl)-1H-indole-3-acetic acid hydrazide] | 60.5 ± 12.8 | 470 ± 150 |  | 
2 | COc1ccc2c(c1)c(CC(=O)NN)c(C)n2Cc1cccc(OCc2ccccc2)c1 [Example 30, 1-[(3-Benzyloxyphenyl)methyl]-5-methoxy-2-methyl-1H-indole-3-acetic acid hydrazide] | 60.9 ± 9.7 | 610 ± 220 | 21.4 | 
3 | Cc1c(CC(=O)NN)c2cc(Br)ccc2n1Cc1cccc(OCc2ccccc2)c1 [Example 52, 1-[(3-Benzyloxyphenyl)methyl]-5-bromo-2-methyl-1H-indole-3-acetic acid hydrazide] | 29.1 ± 7 | 710 ± 340 | 37.8 ± 15.5 | 
4 | COc1ccc2c(c1)c(CC(=O)NN)c(C)n2Cc1cccc(-c2ccccc2)c1 [Example 25, 1-([1,1'-Biphenyl]-3-ylmethyl)-5-methoxy-2-methyl-1H-indole-3-acetic acid hydrazide] | 7.3 ± 9.9 | 940 ± 330 |  | 
5 | CCc1c(CC(=O)NN)c2cc(OC)ccc2n1Cc1ccccc1 [Example 3, 2-Ethyl-5-methoxy-1-(phenylmethyl)-1H-indole-3-acetic acid hydrazide] | 77.9 ± 4.2 | 420 ± 190 |  | *
6 | COc1ccc2c(c1)c(CC(=O)NN)c(SC)n2Cc1ccccc1 [Example 45, 5-Methoxy-2-methylthio-1-(phenylmethyl)-1H-indole-3-acetic acid hydrazide] |  | 600 ± 130 |  | 
7 | COc1ccc2c(c1)c(CC(=O)NN)c(C)n2Cc1cccc(N)c1 [Example 35, 1-[(3-Aminophenyl)methyl]-5-methoxy-2-methyl-1H-indole-3-acetic acid hydrazide] |  | 7120 ± 4890 |  | 
8 | COc1ccc(Cn2c(C)c(CC(=O)NN)c3cc(OC)ccc32)cc1 [Example 28, 5-Methoxy-1-[(4-methoxyphenyl)methyl]-2-methyl-1H-indole-3-acetic acid hydrazide] |  | 11700 ± 4040 |  | 
9 | CCc1c(CC(=O)NN)c2cc(F)ccc2n1Cc1ccccc1 [Example 7, 2-Ethyl-5-fluoro-1-(phenylmethyl)-1H-indole-3-acetic acid hydrazide] |  | 1520 ± 560 |  | 
10 | COc1cccc(Cn2c(C)c(CC(=O)NN)c3cc(OC)ccc32)c1 [Example 27, 5-Methoxy-1-[(3-methoxyphenyl)methyl]-2-methyl-1H-indole-3-acetic acid hydrazide] |  | 2180 ± 510 |  | 
11 | Cc1c(CC(=O)NN)c2cc(-c3ccccc3)ccc2n1Cc1cccc(OCc2ccccc2)c1 [Example 58, 1-[(3-Benzyloxyphenyl)methyl]-2-methyl-5-phenyl-1H-indole-3-acetic acid hydrazide] |  | 2210 ± 1160 |  | 
12 | COc1ccc2c(c1)c(CC(=O)NN)c(C)n2Cc1cccc([N+](=O)[O-])c1 [Example 34, 5-Methoxy-2-methyl-1-[(3-nitrophenyl)methyl]-1H-indole-3-acetic acid hydrazide] |  | 15200 ± 770 |  | 
13 | NNC(=O)Cc1cn(Cc2ccccc2)c2ccc(OCc3ccccc3)cc12 [Example 9, 5-Benzyloxy-1-(phenylmethyl)-1H-indole-3-acetic acid hydrazide] |  | 2310 ± 650 |  | 
14 | 5-Methoxy-2-methyl-1-(phenylmethyl)-1H-indole-3-propanoic acid hydrazide [Example 65] |  | 32600 |  | 

Other lines, results leading:

Row | inhibition at 30 µM [1] [%] | IC50 [2] [nM] | inhibition at 10 µM [1] [%] | transient contraction of tissue during test ([1]; footnote * of Table 2) | Molecule
15 | 45.1 ± 6.8 | 2470 ± 640 |  |  | Cc1c(CC(=O)NN)c2cc(C(=O)NN)ccc2n1Cc1ccccc1 [Example 70, 5-Hydrazinocarbonyl-2-methyl-1-(phenylmethyl)-1H-indole-3-acetic acid hydrazide]
16 | 11 ± 10.3 | 5170 ± 6710 |  |  | CCc1c(CC(=O)NN)c2cc(OC)ccc2n1Cc1ccccc1-c1ccccc1 [Example 4, 1-([1,1'-biphenyl]-2-ylmethyl)-2-ethyl-5-methoxy-1H-indole-3-acetic acid hydrazide]
17 | -4.2 ± 6.2 | 260 ± 80 |  |  | COc1ccc2c(c1)c(CC(=O)NN)c(C)n2Cc1ccccc1-c1ccccc1 [Example 24, 1-([1,1'-Biphenyl]-2-ylmethyl)-5-methoxy-2-methyl-1H-indole-3-acetic acid hydrazide]
18 |  | 5960 ± 2030 |  |  | COc1ccc2c(c1)c(CC(=O)NN)c(C)n2Cc1ccc(O)cc1 [Example 33, 1-[(4-Hydroxyphenyl)methyl]-5-methoxy-2-methyl-1H-indole-3-acetic acid hydrazide]
19 |  | 860 |  |  | Cc1c(CC(=O)NN)c2cc(OCCCC(=O)O)ccc2n1Cc1ccccc1 [Example 71, 4-[[3-(2-Hydrazino-2-oxoethyl)-2-methyl-1-(phenylmethyl)-1H-indol-5-yl]oxy]butanoic acid]
20 |  | 670 ± 240 |  |  | CCc1c(CC(=O)NN)c2cc(C)ccc2n1Cc1ccccc1 [Example 6, 2-Ethyl-5-methyl-1-(phenylmethyl)-1H-indole-3-acetic acid hydrazide]
21 |  | 860 ± 200 |  |  | Cc1c(CC(=O)NN)c2cc(-c3ccccc3)ccc2n1Cc1ccccc1 [Example 56, 2-Methyl-5-phenyl-1-(phenylmethyl)-1H-indole-3-acetic acid hydrazide]
22 |  | 9960 ± 5610 |  |  | 5-Methoxy-1-(phenylmethyl)-1H-indole-3-butanoic acid hydrazide [Example 66]
23 |  | 9390 ± 2300 |  |  | COc1ccc2c(c1)c(CC(=O)NN)c(C)n2Cc1cc(Cl)ccc1Cl [Example 20, 1-(2,5-Dichlorophenylmethyl)-5-methoxy-2-methyl-1H-indole-3-acetic acid hydrazide]
24 |  | 1710 ± 240 |  |  | COc1ccc2c(c1)c(CC(=O)NN)c(C)n2Cc1ccccc1Cl [Example 17, 1-(2-Chlorophenylmethyl)-5-methoxy-2-methyl-1H-indole-3-acetic acid hydrazide]
